PMC12409540 (ACS Omega, 2025)

Target: Nurr1 protein (Homo sapiens, UniProt P43354)
Experiment: SPR
Format: binding

Nurr1 protein, sequence (P43354 whole entry): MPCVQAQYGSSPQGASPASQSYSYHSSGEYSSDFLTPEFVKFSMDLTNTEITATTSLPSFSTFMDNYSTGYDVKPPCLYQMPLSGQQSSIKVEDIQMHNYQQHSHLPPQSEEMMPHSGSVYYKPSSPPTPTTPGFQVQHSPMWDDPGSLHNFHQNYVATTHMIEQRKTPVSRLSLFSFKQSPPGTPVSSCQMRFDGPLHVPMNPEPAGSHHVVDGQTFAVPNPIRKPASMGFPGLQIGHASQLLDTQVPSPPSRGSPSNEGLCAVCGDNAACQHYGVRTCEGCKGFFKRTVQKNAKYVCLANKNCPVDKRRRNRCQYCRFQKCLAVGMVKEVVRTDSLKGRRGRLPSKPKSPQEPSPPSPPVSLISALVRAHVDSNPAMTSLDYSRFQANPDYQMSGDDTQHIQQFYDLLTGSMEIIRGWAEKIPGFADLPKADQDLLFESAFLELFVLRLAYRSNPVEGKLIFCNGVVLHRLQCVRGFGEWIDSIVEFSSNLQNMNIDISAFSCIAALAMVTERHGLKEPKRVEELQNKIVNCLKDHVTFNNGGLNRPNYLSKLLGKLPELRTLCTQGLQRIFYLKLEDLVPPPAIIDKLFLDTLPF

Row | Structure (SMILES) | Kd [µM]
1 | CCN(CC)Cc1cc(Nc2ccnc3cc(Cl)ccc23)ccc1O [amodiaquine] | 37
2 | CO[C@H]1C[C@H](O[C@H]2CC[C@]3(C=O)[C@H]4CC[C@]5(C)[C@@H](C6=CC(=O)OC6)CC[C@]5(O)[C@@H]4CC[C@]3(O)C2)O[C@H](C)[C@H]1O[C@@H]1O[C@H](CO[C@@H]2O[C@H](CO)[C@@H](O)[C@H](O)[C@H]2O)[C@@H](O)[C@H](O)[C@H]1O [compound 7, K-strophanthoside] | 23.1
